Results published in publication PMC9944328 (Nature Communications, 2023).
pEC50: −log10 of the molar value. Read-outs that look alike come from different tables or passages of the source.

System: SSTR2 mutants
Test: SSTRs Gi-mediated cAMP inhibition, GloSensor, HEK293, 5 μM forskolin, 15 min room temperature (SSTR2 mutants)
Type: cell-based, human
Parameters: Best-fit Bottom, cAMP inhibition / Best-fit Top, cAMP inhibition / Span, cAMP inhibition / Bottom (best-fit value) / Top (best-fit value) / Span (best-fit value) / Span (best-fit) / Bottom (best-fit) / Top (best-fit) / Best-fit Bottom / Best-fit Top / Best-fit Span / Top / Span: scale not given here
Method: The levels of the intracellular 3′, 5′-cyclic AMP (cAMP) were measured by the GloSensor cAMP assay (Promega) as described in the previous studies[28],[41] which has been widely used. The human full-length SSTRs and mutants were cloned into the pcDNA3.1+ vector with a HA signal sequence followed by a Flag tag at the N-terminus. HEK293 cells (ATCC, CRL-1573) were seeded into 6-well microplates at a density of 1.0 × 10^6 cells/well and cultured for 24 h at 37 °C with 5% CO2. Cells were then co-transfected with SSTR wild-type or mutants and GloSensor plasmids. After 24 h of transfection, the cells were dissociated with TrypLE™ Express Enzyme (1X) (Thermo Fisher Scientific) and collected by centrifugation at 500 × g for 5 min. Then the collected cells were suspended in Hank’s balanced salt solution [HBSS (Thermo Fisher Scientific)] supplemented with […] (YEASEN), and then the suspension cells were seeded into 96-well plates with 90 μl/well. After incubating at room temperature for 40 min, 5 μM forskolin and ligands diluted in HBSS were added to each well and the plates were incubated at room temperature for 15 min. […] were measured using the Synergy H1 microplate reader (BioTek) and the data presented are means of at least three independent experiments.

C[C@@H](O)[C@@H]1NC(=O)[C@H](CCCCN)NC(=O)[C@@H](Cc2c[nH]c3ccccc23)NC(=O)[C@H](Cc2ccccc2)NC(=O)[C@@H](NC(=O)[C@H](N)Cc2ccccc2)CSSC[C@@H](C(=O)N[C@H](CO)[C@@H](C)O)NC1=O [octreotide]
Top (best-fit value) (I284A-1, run 1): 116.3 | pEC50 (I284A-1, run 1, read-out: EC50 (best-fit value)): 8.87 | Bottom (best-fit value) (I284A-2, run 2): -11.95 | LogEC50 (best-fit value) (I284A-2, run 2): -9.363 | Span (best-fit value) (I284A-2, run 2): 136.5 | Top (best-fit value) (I284A-2, run 2): 124.6 | pEC50 (I284A-2, run 2, read-out: EC50 (best-fit value)): 9.36 | Bottom (best-fit value) (I284A-3, run 3): -6.083 | LogEC50 (best-fit value) (I284A-3, run 3): -8.813 | Span (best-fit value) (I284A-3, run 3): 75.58 | Top (best-fit value) (I284A-3, run 3): 69.5 | pEC50 (I284A-3, run 3, read-out: EC50 (best-fit value)): 8.81 | Impact on Gi protein pathway (I284ECL3A and K291(7.32)A): relatively small | Best-fit Bottom (K291A-1): -13.76 | Best-fit Span (K291A-1): 86.2 | Best-fit Top (K291A-1): 72.44 | LogEC50 (K291A-1): -8.384 | pEC50 (K291A-1, read-out: EC50): 8.40 | Best-fit Bottom (K291A-2): -3.629 | Best-fit Span (K291A-2): 91.53 | Best-fit Top (K291A-2): 87.9 | LogEC50 (K291A-2): -8.328 | pEC50 (K291A-2, read-out: EC50): 8.33 | Best-fit Bottom (K291A-3): 3.692 | Best-fit Span (K291A-3): 104.2 | Best-fit Top (K291A-3): 107.9 | LogEC50 (K291A-3): -8.123 | pEC50 (K291A-3, read-out: EC50): 8.12 | Best-fit Bottom (L290A-1): 32.91 | Best-fit Span (L290A-1): 84.91 | Best-fit Top (L290A-1): 117.8 | LogEC50 (L290A-1): -9.231 | pEC50 (L290A-1, read-out: EC50): 9.23 | Best-fit Span (L290A-2): 90.85 | Best-fit Top (L290A-2): 95.5 | LogEC50 (L290A-2): -9.519 | Best-fit Bottom (L290A-3): 2.997 | Best-fit Span (L290A-3): 94.23 | Best-fit Top (L290A-3): 97.22 | LogEC50 (L290A-3): -9.438 | pEC50 (L290A-3, read-out: EC50): 9.44 | Gi signaling of mutant (N276(6.55)A): still exerted Gi signaling activation | Bottom (best-fit) (N276A-1): -14.21 | LogEC50 (best-fit) (N276A-1): -7.981 | Span (best-fit) (N276A-1): 75.87 | Top (best-fit) (N276A-1): 61.65 | pEC50 (N276A-1, read-out: EC50 (best-fit)): 7.98 | Bottom (best-fit) (N276A-2): 0.8581 | LogEC50 (best-fit) (N276A-2): -7.561 | Span (best-fit) (N276A-2): 112.9 | Top (best-fit) (N276A-2): 113.7 | pEC50 (N276A-2, read-out: EC50 (best-fit)): 7.56 | Bottom (best-fit) (N276A-3): 2.316 | LogEC50 (best-fit) (N276A-3): -7.587 | Span (best-fit) (N276A-3): 109.8 | Top (best-fit) (N276A-3): 112.1 | pEC50 (N276A-3, read-out: EC50 (best-fit)): 7.59 | Bottom (best-fit) (P220A-1): 19.71 | LogEC50 (best-fit) (P220A-1): -9.136 | Span (best-fit) (P220A-1): 47.88 | Top (best-fit) (P220A-1): 67.58 | pEC50 (P220A-1, read-out: EC50 (best-fit)): 9.14 | Bottom (best-fit) (P220A-2): 10.44 | LogEC50 (best-fit) (P220A-2): -8.311 | Span (best-fit) (P220A-2): 101.1 | Top (best-fit) (P220A-2): 111.6 | pEC50 (P220A-2, read-out: EC50 (best-fit)): 8.31 | Bottom (best-fit) (P220A-3): 7.137 | LogEC50 (best-fit) (P220A-3): -8.347 | Span (best-fit) (P220A-3): 101.3 | Top (best-fit) (P220A-3): 108.4 | pEC50 (P220A-3, read-out: EC50 (best-fit)): 8.35 | Bottom (best-fit value) (P286A-1, run 1): -1.561 | LogEC50 (best-fit value) (P286A-1, run 1): -9.311 | Span (best-fit value) (P286A-1, run 1): 110.5 | Top (best-fit value) (P286A-1, run 1): 108.9 | pEC50 (P286A-1, run 1, read-out: EC50 (best-fit value)): 9.31 | Bottom (best-fit value) (P286A-2, run 2): -0.685 | LogEC50 (best-fit value) (P286A-2, run 2): -9.269 | Span (best-fit value) (P286A-2, run 2): 107.2 | Top (best-fit value) (P286A-2, run 2): 106.5 | pEC50 (P286A-2, run 2, read-out: EC50 (best-fit value)): 9.27 | Bottom (best-fit value) (P286A-3, run 3): -0.6493 | LogEC50 (best-fit value) (P286A-3, run 3): -9.076 | Span (best-fit value) (P286A-3, run 3): 92.48 | Top (best-fit value) (P286A-3, run 3): 91.83 | pEC50 (P286A-3, run 3, read-out: EC50 (best-fit value)): 9.08 | Best-fit Bottom (S279A-1): 9.876 | Best-fit Span (S279A-1): 98.05 | Best-fit Top (S279A-1): 107.9 | LogEC50 (S279A-1): -9.015 | pEC50 (S279A-1, read-out: EC50): 9.02 | Best-fit Span (S279A-2): 101.7 | Best-fit Top (S279A-2): 106.6 | LogEC50 (S279A-2): -8.897 | pEC50 (S279A-2, read-out: EC50): 8.90 | Best-fit Bottom (S279A-3): 4.156 | Best-fit Span (S279A-3): 86.31 | Best-fit Top (S279A-3): 90.47 | LogEC50 (S279A-3): -8.897 | Bottom (best-fit value) (S285A-1, run 1): 7.122 | LogEC50 (best-fit value) (S285A-1, run 1): -9.176 | Span (best-fit value) (S285A-1, run 1): 90.01 | Top (best-fit value) (S285A-1, run 1): 97.13 | pEC50 (S285A-1, run 1, read-out: EC50 (best-fit value)): 9.18 | Bottom (best-fit value) (S285A-2, run 2): 7.037 | LogEC50 (best-fit value) (S285A-2, run 2): -9.15 | Span (best-fit value) (S285A-2, run 2): 69.44 | Top (best-fit value) (S285A-2, run 2): 76.48 | pEC50 (S285A-2, run 2, read-out: EC50 (best-fit value)): 9.15 | Bottom (best-fit value) (S285A-3, run 3): -3.857 | LogEC50 (best-fit value) (S285A-3, run 3): -9.167 | Span (best-fit value) (S285A-3, run 3): 92.79 | Top (best-fit value) (S285A-3, run 3): 88.94 | pEC50 (S285A-3, run 3, read-out: EC50 (best-fit value)): 9.17 | Best-fit Bottom, cAMP inhibition (SSTR2 I195A-1, run 1): 1.138
